{"source": "patent US5508277A", "about": "“Bicyclic pyrimidines” (Adir Et Compagnie, priority 1992, dated 1996)", "key": {"[1]": {"test_system": "P388/VCR (murine leukaemia resistant to vincristine)", "assay": "Increase in the anti-tumour activity of vincristine in vivo, compounds administered p.o.", "set-up": "species or system mice (female B6D2F1)", "conditions": "100 mg/kg p.o., days 1, 2, 3 and 4; + vincristine 0.25 mg/kg i.p.", "text": "(§1) The sensitive parent line P388 (murine leukaemia) and the sub-line resistant to vincristine, P388/VCR, were supplied by NCI (Frederick, USA). The tumour cells (10^6 cells) were inoculated on day 0 into the intraperitoneal cavity of female B6D2F1 mice (Iffa Credo, France) weighing from 18 to 20 g (groups of 8 to 10 animals). In the case of i.p. administration of the compounds to be tested, the animals received on days 1, 5 and 9:\nIn the case of p.o. administration of the compounds to be tested, the animals received on days 1, 2, 3 and 4:\nan administration by the oral route of 100 mg/kg of the compound of the present invention to be tested, then\n30 to 60 minutes later, an administration by the i.p. route of 0.25 mg/kg of vincristine.\nThe anti-tumour activity is expressed as follows: [formula]\nThe activity of the reversing compound is expressed as T/V: [formula]"}, "[2]": {"test_system": "P388/VCR (murine leukaemia resistant to vincristine)", "assay": "Increase in the anti-tumour activity of vincristine in vivo, compounds administered i.p.", "set-up": "species or system mice (female B6D2F1)", "conditions": "for increase in anti-tumour activity of vincristine (in words): administered i.p., resistant tumour", "procedure": "as §1, with “9: administration by the i.p. route of 25, 50 or 75 mg/kg of the compound of the present invention to be tested, then 30 to 60 minutes later, an administration by the i.p. route of 0.50 mg/kg of vincristine (used as a reference anti-tumour agent). The anti-tumour activity is expressed as follows: [formula] The activity of the reversing compound is expressed as T/V: [formula]” for “9:”"}, "DC-3F/AD cells": {"test_system": "DC-3F/AD cells", "assay": "Cytotoxicity of actinomycin D, reversal of MDR (reversion factor), Microculture Tetrazolium Assay", "format": "cell-based, Chinese hamster", "conditions": "compound at 5 μM, with actinomycin D, 4 days", "procedure": "Two resistant cell lines were used:\nThe cells are distributed on microplates and exposed to the cytotoxic compound (actinomycin D or adriamycin) at 9 concentrations (2 by 2 series dilutions). The compounds tested for their capacity to reverse MDR are added at the same time as the cytotoxic agent. The cells are then incubated for 4 days. […] The results are expressed as a reversion factor (RF): [formula]"}, "[3]": {"conditions": "25 mg/kg i.p., days 1, 5 and 9, + vincristine 0.50 mg/kg i.p."}, "[4]": {"conditions": "50 mg/kg i.p., days 1, 5 and 9, + vincristine 0.50 mg/kg i.p."}, "[5]": {"conditions": "75 mg/kg i.p., days 1, 5 and 9, + vincristine 0.50 mg/kg i.p."}, "[6]": {"conditions": "VCR only, 0.50 mg/kg i.p., no compound"}}, "data": [{"smiles": "C=CCNc1nc(N2CCC(NC3c4ccccc4N(C)S(=O)(=O)c4cc(Cl)ccc43)CC2)nc2c1ncn2CC=C", "note": "(single isomer, unassigned) [Example 15, (+)--(R)-- or --(S)-9-allyl-6-allylamino-2-{4-[(3-chloro-6-methyl-5,5-dioxo-6,11-dihydrodibenzo[c,f][1,2]thiazepin-11-yl)amino]piperidino)purine]", "values": [{"measurement": "T/C", "setting": "[1]", "result": 157}]}, {"smiles": "C=CCNc1nc(N2CCC(NCC3c4ccccc4CCc4ccccc43)CC2)nc2c1ncn2CC=C", "note": "[Example 1, 9-allyl-6-allylamino-2-{4-[(10,11-dihydro-5H-dibenzo-[a,d]cyclohepten-5-yl)methylamino]piperidino}purine]", "values": [{"measurement": "T/C %", "setting": "[2]; [3]", "result": 215, "unit": "%"}, {"measurement": "T/V", "setting": "[2]; [3]", "result": 1.54}, {"measurement": "T/C %", "setting": "[2]; [4]", "result": 239, "unit": "%"}, {"measurement": "T/V", "setting": "[2]; [4]", "result": 1.71}, {"measurement": "T/C %", "setting": "[2]; [5]", "result": 176, "unit": "%"}, {"measurement": "T/V", "setting": "[2]; [5]", "result": 1.26}, {"measurement": "increase in anti-tumour activity of vincristine (in words)", "setting": "[2]", "result": "substantially increase the anti-tumour activity of vincristine against a resistant tumour"}, {"measurement": "REVERSION FACTOR 5 μM DC-3F/AD", "setting": "DC-3F/AD cells", "result": 5173}, {"measurement": "T/C", "setting": "[1]", "result": 209}]}, {"smiles": "C=CCNc1nc(N2CCC(NCC3c4ccccc4CCc4ccccc43)CC2)c2ncn(CC=C)c2n1", "note": "[Example 2, 9-allyl-2-allylamino-6-{4-[(10,11-dihydro-5H-dibenzo-[a,d]cyclohepten-5-yl)methylamino]piperidino}purine]", "values": [{"measurement": "T/C %", "setting": "[2]; [3]", "result": 192, "unit": "%"}, {"measurement": "T/V", "setting": "[2]; [3]", "result": 1.37}, {"measurement": "T/C %", "setting": "[2]; [4]", "result": 224, "unit": "%"}, {"measurement": "T/V", "setting": "[2]; [4]", "result": 1.60}, {"measurement": "T/C %", "setting": "[2]; [5]", "result": 235, "unit": "%"}, {"measurement": "T/V", "setting": "[2]; [5]", "result": 1.68}, {"measurement": "increase in anti-tumour activity of vincristine (in words)", "setting": "[2]", "result": "substantially increase the anti-tumour activity of vincristine against a resistant tumour"}, {"measurement": "REVERSION FACTOR 5 μM DC-3F/AD", "setting": "DC-3F/AD cells", "result": 3368}, {"measurement": "T/C", "setting": "[1]", "result": 172}]}, {"smiles": "C=CCNc1nc(N2CCC(NCC(c3ccc(F)cc3)c3ccc(F)cc3)CC2)nc2c1ncn2CC=C", "note": "[Example 3, 9-allyl-6-allylamino-2-{4-[2,2-bis(4-fluorophenyl)-ethylamino]piperidino}purine]", "values": [{"measurement": "T/C", "setting": "[1]", "result": 203}]}, {"smiles": "C=CCNc1nc(N2CCC(NCC3c4ccccc4COc4ccccc43)CC2)nc2c1ncn2CC=C", "note": "(stereo not shown) [Example 5, 9-allyl-6-allylamino-2-{4-[(6,11-dihydrodibenzo[b,e]-oxepin-11-yl)methylamino]piperidino}purine]", "values": [{"measurement": "T/C", "setting": "[1]", "result": 196}]}, {"smiles": "C=CCNc1nc(N2CCC(NCC3c4ccccc4C=Cc4ccccc43)CC2)nc2c1ncn2CC=C", "note": "[Example 6, 9-allyl-6-allylamino-2-{4-[(5H-dibenzo[a,d]cyclohepten-5-yl)methylamino]piperidino}purine]", "values": [{"measurement": "T/C", "setting": "[1]", "result": 188}]}, {"smiles": "C=CCNc1nc(N2CCC(NCC3c4ccccc4CCc4ccccc43)CC2)nc2c1cnn2CC=C", "note": "[Example 9, 1-allyl-4-allylamino-6-{4-[(10,11-dihydro-5H-dibenzo[a,d]cyclohepten-5-yl)methylamino]piperidino}pyrazolo[3,4-d]pyrimidine]", "values": [{"measurement": "T/C", "setting": "[1]", "result": 161}]}, {"smiles": "C=CCNc1nc(N2CCC(NCC(c3ccccc3)c3ccccc3)CC2)nc2c1ncn2CC=C", "note": "[Example 12, 9-allyl-6-allylamino-2-{4-[(2,2-diphenylethyl)amino]piperidino}purine]", "values": [{"measurement": "T/C", "setting": "[1]", "result": 192}]}, {"smiles": "C=CCNc1nc(N2CCC(NCC3c4ccccc4CCc4cc(OC)ccc43)CC2)nc2c1ncn2CC=C", "note": "(stereo not shown) [Example 14, 9-allyl-6-allylamino-2-{4-[(2-methoxy-10,11-dihydro-5H-dibenzo[a,d]cyclohepten-5-yl)methylamino]piperidino}purine]", "values": [{"measurement": "T/C", "setting": "[1]", "result": 202}]}, {"smiles": "CC[C@]1(O)C[C@H]2CN(CCc3c([nH]c4ccccc34)[C@@](C(=O)OC)(c3cc4c(cc3OC)N(C=O)[C@H]3[C@@](O)(C(=O)OC)[C@H](OC(C)=O)[C@]5(CC)C=CCN6CC[C@]43[C@@H]65)C2)C1", "note": "[VCR, vincristine, reference compound]", "values": [{"measurement": "T/C %", "setting": "[2]; [6]", "result": 140, "unit": "%"}, {"measurement": "T/V", "setting": "[2]; [6]", "result": 1}]}, {"smiles": "COc1ccc(CCN(C)CCCC(C#N)(c2ccc(OC)c(OC)c2)C(C)C)cc1OC", "note": "(stereo not shown) [verapamil, reference compound]", "values": [{"measurement": "REVERSION FACTOR 5 μM DC-3F/AD", "setting": "DC-3F/AD cells", "result": 3}]}]}
